The values that follow come from ChEMBL document CHEMBL1156696, “Structure activity relationships of quinoline-containing c-Met inhibitors” (Eur J Med Chem, 2008).

In assay [1] the target is T1, Hepatocyte growth factor receptor (Homo sapiens, UniProt P08581). Briefly: Inhibition of human activated c-Met at 1 uM by PK/LDH coupled kinetic assay.
In assay [2] the target is T1, Hepatocyte growth factor receptor. Description: Inhibition of human activated c-Met by PK/LDH coupled kinetic assay.

pKi: −log10 of the molar value.

As usually defined, the inhibition is the relative decrease from the control value, in per cent. Read a low inhibition as a response near the control. Broadly, the pKi is the Ki on a negative log10 scale, so that one unit is a factor of ten.

T1 sequence (P08581 whole entry): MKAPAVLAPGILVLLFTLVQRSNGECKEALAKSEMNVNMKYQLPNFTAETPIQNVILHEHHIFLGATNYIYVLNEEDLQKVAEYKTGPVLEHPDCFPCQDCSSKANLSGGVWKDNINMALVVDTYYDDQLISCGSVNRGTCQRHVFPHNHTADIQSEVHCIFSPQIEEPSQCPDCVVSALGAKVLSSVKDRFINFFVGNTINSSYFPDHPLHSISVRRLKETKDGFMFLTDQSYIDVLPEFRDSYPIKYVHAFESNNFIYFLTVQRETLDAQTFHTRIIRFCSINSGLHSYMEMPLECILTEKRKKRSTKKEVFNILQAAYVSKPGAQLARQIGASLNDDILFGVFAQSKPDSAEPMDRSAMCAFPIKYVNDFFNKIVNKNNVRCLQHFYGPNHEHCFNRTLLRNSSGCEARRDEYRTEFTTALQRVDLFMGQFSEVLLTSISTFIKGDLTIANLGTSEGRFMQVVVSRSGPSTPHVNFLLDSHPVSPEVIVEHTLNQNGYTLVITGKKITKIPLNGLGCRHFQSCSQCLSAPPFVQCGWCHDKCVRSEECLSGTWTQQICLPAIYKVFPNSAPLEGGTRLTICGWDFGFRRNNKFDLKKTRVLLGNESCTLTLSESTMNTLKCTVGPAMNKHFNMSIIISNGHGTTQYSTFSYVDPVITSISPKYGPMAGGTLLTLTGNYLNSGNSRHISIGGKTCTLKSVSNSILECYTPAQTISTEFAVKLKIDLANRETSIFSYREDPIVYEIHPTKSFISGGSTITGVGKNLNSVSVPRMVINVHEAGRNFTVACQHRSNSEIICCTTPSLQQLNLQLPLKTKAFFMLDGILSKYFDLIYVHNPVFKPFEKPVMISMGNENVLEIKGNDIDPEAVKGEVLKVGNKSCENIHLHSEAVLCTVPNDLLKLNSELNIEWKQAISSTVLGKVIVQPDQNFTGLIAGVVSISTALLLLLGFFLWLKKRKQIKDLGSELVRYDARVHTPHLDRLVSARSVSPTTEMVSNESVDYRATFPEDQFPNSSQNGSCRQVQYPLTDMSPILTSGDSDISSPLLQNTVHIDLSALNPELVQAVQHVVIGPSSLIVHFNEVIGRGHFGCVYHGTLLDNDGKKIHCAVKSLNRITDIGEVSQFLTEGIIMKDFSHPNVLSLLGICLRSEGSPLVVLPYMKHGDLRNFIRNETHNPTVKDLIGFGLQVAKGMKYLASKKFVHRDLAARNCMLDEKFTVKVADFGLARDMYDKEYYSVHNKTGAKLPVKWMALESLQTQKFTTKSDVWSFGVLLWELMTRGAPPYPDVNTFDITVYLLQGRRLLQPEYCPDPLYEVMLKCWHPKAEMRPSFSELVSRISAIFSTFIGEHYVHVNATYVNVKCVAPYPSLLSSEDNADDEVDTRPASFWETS

In turn, `COc1cc2nccc(Oc3ccc(N)nc3)c2cc1OC` displayed an inhibition in assay [1] of 2%.
As for `COc1cc2nccc(Oc3ccc(NC(=O)N4CCNCC4)nc3)c2cc1OC`, in assay [2], the pKi is under 4.52.
